target: T1, Syk (Homo sapiens, UniProt P43405); assay: Syk HTRF assay; type: biochemical; settings: IC50 activity level, read-out: Activity Level
T1 construct: purchased Carna Biosciences
Procedure: Test compounds were prepared at a concentration of 1.5 mM in DMSO followed by 3-fold dilutions in Greiner […] polypropylene plates. A 1:4 dilution of compounds by 8 μL/well transfer from the polypropylene plates to 24 μL/well Assay Buffer in Costar 3710 384 well black plates was then performed. Kinases (13 μL/well) or Assay Buffer only (background controls; 50 mM HEPES pH 7.6, 1 mM DTT, 10 mM MgCl2, 0.01% Triton X100, 0.01% BSA and 0.1 mM EDTA) were added to Costar 3710 384-well black plates for the HTRF assays (Carna Biosciences) and compound was added from the 1:4 dilution plate. Syk start mix (87.5 μM ATP, 80 nM Substrate Peptide (American Peptide Company 332722) was added and the mixture was incubated at room temperature for 1 hour. Syk Stop Solution (120 mM EDTA in dilution buffer) was then added to the Syk HTRF assay plate and incubated at room temperature on a shaker for 2 minutes. Syk Antibody Mix (4.86 μg/mL DyLight 647 Streptavidin (Pierce 21824); 1 μg/mL Lance Eu-Anti-Phosphotyrosine (PerkinElmer AD0069)) was added to the Syk HTRF assay plate and the mixture was further incubated at room temperature for >4 h. Time resolved fluorescence was read in assay plates on a PerkinElmer EnVision. HTRF assays were performed using 320 nm excitation, 60 μs delay, 665 nm and 615 nm emission. Data was expressed by division of 665 nm by 615 nm emissions.

Row | SMILES | IC50 [nM]
1 | OC1CCC(Nc2cccc3nc(Nc4ccccc4)nn23)CC1 (stereo in doubt) [Example 470, trans-4-(2-(phenylamino)-[1,2,4]triazolo[1,5-a]pyridin-5-ylamino)cyclohexanol] | 1000 to 10000
2 | c1cc(NC2CCCNC2)n2nc(Nc3ccc4c(c3)CNC4)nc2c1 (stereo in doubt) [Example 448, (R)-N^2-(isoindolin-5-yl)-N^5-(piperidin-3-yl)-[1,2,4]triazolo[1,5-a]pyridin-2,5-diamine] | 1000 to 10000
3 | c1ccc(Nc2nc3cccc(-c4cccnc4)n3n2)cc1 [Example 524, N-phenyl-5-(pyridin-3-yl)-[1,2,4]triazolo[1,5-a]pyridin-2-amine] | 1000 to 10000
4 | CNC(=O)c1ccc(Nc2nc3cccc(-c4ccc5nn[nH]c5c4)n3n2)cc1 [Example 432, 4-(5-(1H-benzo[d][1,2,3]triazol-6-yl)-[1,2,4]triazolo[1,5-a]pyridin-2-ylamino)-N-methylbenzamide] | 0.005 to 250
5 | Cc1cc(Nc2nc3cccc(CC4CCOCC4)n3n2)cnc1N1CCOCC1 [Example 535, N-(5-methyl-6-morpholinopyridin-3-yl)-5-((tetrahydro-2H-pyran-4-yl)methyl)-[1,2,4]triazolo[1,5-a]pyridin-2-amine] | 500 to 1000
6 | c1ccc(Nc2nc3cccc(C4CCNCC4)n3n2)cc1 [Example 512, N-phenyl-5-(piperidin-4-yl)-[1,2,4]triazolo[1,5-a]pyridin-2-amine] | 1000 to 10000
7 | Oc1cc(Nc2cccc3nc(Nc4ccc(C(F)(F)F)cc4)nn23)ccn1 [Example 415, 4-(2-(4-(trifluoromethyl)phenylamino)-[1,2,4]triazolo[1,5-a]pyridin-5-ylamino)pyridin-2-ol] | 1000 to 10000
8 | c1ccc(Nc2nc3cccc(N[C@H]4CCNC4)n3n2)cc1 [Example 475, (S)-N^2-phenyl-N^5-(pyrrolidin-3-yl)-[1,2,4]triazolo[1,5-a]pyridin-2,5-diamine] | 250 to 500
9 | NC(=O)c1ccc(Nc2nc3cccc(N[C@H]4CCCNC4)n3n2)cc1 [Example 483, (S)-4-(5-(piperidin-3-ylamino)-[1,2,4]triazolo[1,5-a]pyridin-2-ylamino)benzamide] | 0.005 to 250

same assay, conditions: activity levels A-D, read-out: Activity Level (IC50 in the Syk HTRF assay)

Row | SMILES | IC50 [nM]
10 | CNC(=O)c1ccc(Nc2nc3cccc(CC4CCNC4)n3n2)cc1 (stereo not drawn) [Example 267, N-methyl-4-(5-(pyrrolidin-3-ylmethyl)-[1,2,4]triazolo[1,5-a]pyridin-2-ylamino)benzamide] | 500 to 1000
11 | FC(F)(F)c1ccc(Nc2nc3cccc(OC4CCNCC4)n3n2)cc1 [Example 352, 5-(piperidin-4-yloxy)-N-(4-(trifluoromethyl)phenyl)-[1,2,4]triazolo[1,5-a]pyridin-2-amine] | 1000 to 10000
12 | CC(C)(O)c1ccc(Nc2nc3cccc(N[C@H]4CC[C@@H](O)CC4)n3n2)cn1 [Example 359, cis-4-(2-(6-(2-hydroxypropan-2-yl)pyridin-3-ylamino)-[1,2,4]triazolo[1,5-a]pyridin-5-ylamino)cyclohexanol] | 1000 to 10000
13 | CC(C)Nc1cccc2nc(Nc3ccc(C(F)(F)F)cc3)nn12 [Example 330, N^5-isopropyl-N^2-(4-(trifluoromethyl)phenyl)-[1,2,4]triazolo[1,5-a]pyridin-2,5-diamine] | 1000 to 10000
14 | OC[C@]1(O)CC[C@@H](Nc2cccc3nc(Nc4ccc(C(F)(F)F)cc4)nn23)CC1 [Example 227, cis-1-(hydroxymethyl)-4-(2-(4-(trifluoromethyl)phenylamino)-[1,2,4]triazolo[1,5-a]pyridin-5-ylamino)cyclohexanol] | 0.005 to 250
15 | CC(C)(CO)Nc1cccc2nc(Nc3ccc(C(F)(F)F)cc3)nn12 [Example 358, 2-methyl-2-(2-(4-(trifluoromethyl)phenylamino)-[1,2,4]triazolo[1,5-a]pyridin-5-ylamino)propan-1-ol] | 1000 to 10000
16 | Cc1cc(Nc2nc3cccc(Cc4ccnc(O)c4)n3n2)ccc1F [Example 219, 4-((2-(4-fluoro-3-methylphenylamino)-[1,2,4]triazolo[1,5-a]pyridin-5-yl)methyl)pyridin-2-ol] | 0.005 to 250
17 | CNC(=O)c1ccc(Nc2nc3cccc(C[C@H]4CC[C@@H](O)C4)n3n2)cc1 (single isomer, unassigned; diastereomer 2) [Example 214, 4-(5-((3-hydroxycyclopentyl)methyl)-[1,2,4]triazolo[1,5-a]pyrridin-2-ylamino)-N-methylbenzamide (diastereomer 2)] | 1000 to 10000
18 | CNC(=O)c1ccc(Nc2nc3cccc(CC4CCC(N)CC4)n3n2)cc1 (stereo not drawn) [Example 262, 4-(5-((4-aminocyclohexyl)methyl)-[1,2,4]triazolo[1,5-a]pyridin-2-ylamino)-N-methylbenzamide] | 0.005 to 250

same assay, conditions: read-out: Activity Level (Syk HTRF assay IC50)

Row | SMILES | IC50 [nM]
19 | c1ccc(-c2cccc3nc(Nc4ccc5[nH]ncc5c4)nn23)cc1 [compound 61] | 0.005 to 250
20 | CN1Cc2cc(Nc3nc4cccc(N[C@H]5CC[C@@H](O)CC5)n4n3)ccc2C1=O [Example 135, cis-5-(5-(4-hydroxycyclohexylamino)-[1,2,4]triazolo[1,5-a]pyridin-2-ylamino)-2-methylisoindolin-1-one] | 0.005 to 250
21 | CNC(=O)c1ccc(Nc2nc3cccc(-c4ccccc4F)n3n2)cc1 [compound 21, 4-(5-(2-fluorophenyl)-[1,2,4]triazolo[1,5-a]pyridin-2-ylamino)-N-methylbenzamide] | 500 to 1000
22 | Oc1cccc(-c2cccc3nc(Nc4ccc5cn[nH]c5c4)nn23)c1 [compound 27, 3-(2-(1H-indazol-6-ylamino)-[1,2,4]triazolo[1,5-a]pyridin-5-yl)phenol] | 0.005 to 250
23 | CC1(C)C(=O)Nc2cc(Nc3nc4cccc(N5CCC(O)CC5)n4n3)ccc21 [compound 114, 6-(5-(4-hydroxypiperidin-1-yl)-[1,2,4]triazolo[1,5-a]pyridin-2-ylamino)-3,3-dimethylindolin-2-one] | 0.005 to 250
24 | O=C(NC1CCNCC1)c1ccc(Nc2nc3cccc(-c4ccccc4)n3n2)cc1 [compound 77, 4-(5-phenyl-[1,2,4]triazolo[1,5-a]pyridin-2-ylamino)-N-(piperidin-4-yl)benzamide] | 0.005 to 250
25 | CC1(C)C(=O)Nc2cc(Nc3nc4cccc(C[C@H]5CC[C@](C)(O)CC5)n4n3)ccc21 [Example 140, cis-6-(5-((4-hydroxy-4-methylcyclohexyl)methyl)-[1,2,4]triazolo[1,5-a]pyridin-2-ylamino)-3,3-dimethylindolin-2-one] | 0.005 to 250
26 | CNC(=O)c1ccc(Nc2nc3cccc(-c4cccc(-c5cnc[nH]5)c4)n3n2)cc1 [compound 7, 4-(5-(3-(1H-imidazol-5-yl)phenyl)-[1,2,4]triazolo[1,5-a]pyridin-2-ylamino)-N-methylbenzamide] | 0.005 to 250
27 | CC1(C)C(=O)Nc2cc(Nc3nc4cccc(C(O)C5CCOCC5)n4n3)ccc21 (stereo not drawn) [Example 173, 6-(5-(hydroxy(tetrahydro-2H-pyran-4-yl)methyl)-[1,2,4]triazolo[1,5-a]pyridin-2-ylamino)-3,3-dimethylindolin-2-one] | 250 to 500
28 | c1ccc(Nc2nc3cccc(-c4ccccc4)n3n2)cc1 [Example 98] | 500 to 1000
29 | NC(=O)c1ccc(Nc2nc3cccc(-c4cccc(O)c4)n3n2)cc1 [compound 64, 4-(5-(3-hydroxyphenyl)-[1,2,4]triazolo[1,5-a]pyridin-2-ylamino)benzamide] | 0.005 to 250
30 | Cn1cnc2ccc(Nc3nc4cccc(-c5ccccc5)n4n3)cc21 [compound 47, N-(1-methyl-1H-benzo[d]imidazol-6-yl)-5-phenyl-[1,2,4]triazolo[1,5-a]pyridin-2-amine] | 0.005 to 250
31 | Oc1ccc2cc(Nc3nc4cccc(-c5ccccc5)n4n3)ccc2n1 [compound 26, 6-(5-phenyl-[1,2,4]triazolo[1,5-a]pyridin-2-ylamino)quinolin-2-ol] | 0.005 to 250
32 | CC1(C)NC(=O)c2cc(Nc3nc4cccc(N[C@H]5CC[C@@H](O)CC5)n4n3)ccc21 [compound 120, cis-6-(5-(4-hydroxycyclohexylamino)-[1,2,4]triazolo[1,5-a]pyridin-2-ylamino)-3,3-dimethylisoindolin-1-one] | 250 to 500
33 | Oc1cccc(-c2cccc3nc(Nc4ccc5cnoc5c4)nn23)c1 [compound 14, 3-(2-(benzo[d]isoxazol-6-ylamino)-[1,2,4]triazolo[1,5-a]pyridin-5-yl)phenol] | 0.005 to 250
34 | CNC(=O)c1ccc(Nc2nc3cccc(-c4cccc(CCCN)c4)n3n2)cc1 [compound 8, 4-(5-(3-(3-aminopropyl)phenyl)-[1,2,4]triazolo[1,5-a]pyridin-2-ylamino)-N-methylbenzamide] | 0.005 to 250
35 | CC1(C)C(=O)Nc2cc(Nc3nc4cccc(NC5CCOCC5)n4n3)ccc21 [Example 177, 3,3-dimethyl-6-(5-(tetrahydro-2H-pyran-4-ylamino)-[1,2,4]triazolo[1,5-a]pyridin-2-ylamino)indolin-2-one] | 0.005 to 250
36 | CC1(C)C(=O)Nc2cc(Nc3nc4cccc(O[C@H]5CCOC5)n4n3)ccc21 [compound 133, (S)-3,3-dimethyl-6-(5-(tetrahydrofuran-3-yloxy)-[1,2,4]triazolo[1,5-a]pyridin-2-ylamino)indolin-2-one] | 250 to 500

From patent US8299056B2 (Signal Pharmaceuticals, LLC, priority 2008, dated 2012)
